Test results reported in patent EP0017970A1, “Novel beta-lactam derivatives and process for production thereof” (SANRAKU-OCEAN CO., LTD., priority 1979, dated 1980).
≈ marks a conversion by molar mass, not a printed value. Where a name gives a salt, the structure may show the parent alone.

Key:
[1] = tested on: Staphylococcus epidermidis; assay: MIC, agar dilution assay; format: cell-based; settings: 35°C for 20 hours; for MIC: 20 h, read-out: Antibiotic Activity minimum inhibitory concentration
Method: (§1) The antibiotic activities shown in Tables 1-1 to 1-9 above were determined in the following manner. The minimum inhibitory concentrations of the compounds of formula (VI-b) in Tables I-1 to 1-8 and the known compounds in Table 1-9 on the various microorganisms shown in the above tables were measured by an agar dilution assay method using a brain heart infusion agar medium "Difco" (a product of Difco Laboratories Inc.). A sample of the test compound was dissolved in sterile distilled water and diluted to prepare a twofold dilution series of the compound solution. In a betri dish of 9 cm in diameter, 1 ml of the compound solution was added to 9 ml of a molten sterile heart infusion agar medium (Difco Laboratories Inc.) at. about 60°C to prepare an agar plate containing the compound. An overnight culture of each test organism indicated in the above table, which was prepared by stationary cultivation in trypto-soy broth (Eiken Chemi. Co., Ltd.) at 35°C for 18 to 20 hours, was diluted with the trypto-soy broth to give approximately 10^8 cells/ml and the diluted inoculum was inoculated in the agar plate. After cultivating the plate at 35°C for 20 hours, the growth of the organism was observed. The minimum concentration of the compound at which no growth of the microorganism was noted was determined, and defined as the minimum inhibitory concentration of the test compound.

[2] = tested on: Pseudomonas aeruginosa IFO3445; assay: MIC, agar dilution assay; format: cell-based; settings: 35°C for 20 hours, read-out: Antibiotic Activity minimum inhibitory concentration
Method: as §1

Serratia marcescens T55 = assay: MIC, agar dilution assay; format: cell-based; settings: 35°C for 20 hours; for MIC: Serratia marcescens, T55, 20 h, read-out: Antibiotic Activity minimum inhibitory concentration
Method: as §1

Proteus vulgaris GN76 = assay: MIC, agar dilution assay; format: cell-based; settings: 35°C for 20 hours, read-out: Antibiotic Activity minimum inhibitory concentration
Method: as §1

Providencia sp. P8 = assay: MIC, agar dilution assay; format: cell-based; settings: 35°C for 20 hours; for MIC: Providencia, SP.P8, 20 h, read-out: Antibiotic Activity minimum inhibitory concentration
Method: as §1

[3] = tested on: Comamonas terrigena B-996; assay: MIC, agar dilution assay; format: cell-based; settings: 35°C for 20 hours; for MIC: Comamonas terrigena, B996, 20 h, read-out: Antibiotic Activity minimum inhibitory concentration
Method: as §1

Serratia marcescens S18 = assay: MIC, agar dilution assay; format: cell-based; settings: 35°C for 20 hours; for MIC: Serratia marcescens, S18, 20 h, read-out: Antibiotic Activity minimum inhibitory concentration
Method: as §1

[4] = tested on: Klebsiella pneumoniae K-13; assay: MIC, agar dilution assay; format: cell-based; settings: K13, 35°C for 20 hours, read-out: Antibiotic Activity minimum inhibitory concentration
Method: as §1

Sarcina lutea = assay: MIC, agar dilution assay; format: cell-based; settings: 35°C for 20 hours; for MIC: Micrococcus luteus, 20 h, read-out: Antibiotic Activity minimum inhibitory concentration
Method: as §1

[5] = tested on: Pseudomonas aeruginosa NCTC10490; assay: MIC, agar dilution assay; format: cell-based; settings: 35°C for 20 hours, read-out: Antibiotic Activity minimum inhibitory concentration
Method: as §1

[6] = tested on: Staphylococcus aureus FDA 209P; assay: MIC, agar dilution assay; format: cell-based; settings: 35°C for 20 hours; for MIC: Staphylococcus aureus, FDA209P, 20 h, read-out: Antibiotic Activity minimum inhibitory concentration
Method: as §1

Proteus sp. P22 = assay: MIC, agar dilution assay; format: cell-based; settings: 35°C for 20 hours, read-out: Antibiotic Activity minimum inhibitory concentration
Method: as §1

Proteus rettgeri P7 = assay: MIC, agar dilution assay; format: cell-based; settings: 35°C for 20 hours; for MIC: Providencia rettgeri, P7, 20 h, read-out: Antibiotic Activity minimum inhibitory concentration
Method: as §1

Enterobacter sp. E8 = assay: MIC, agar dilution assay; format: cell-based; settings: 35°C for 20 hours; for MIC: Enterobacter, SP.E8, 20 h, read-out: Antibiotic Activity minimum inhibitory concentration
Method: as §1

[7] = tested on: Staphylococcus aureus Smith; assay: MIC, agar dilution assay; format: cell-based; settings: 35°C for 20 hours; for MIC: Staphylococcus aureus, 20 h, read-out: Antibiotic Activity minimum inhibitory concentration
Method: as §1

[8] = tested on: Bacillus subtilis ATCC 6633; assay: MIC, agar dilution assay; format: cell-based; settings: 35°C for 20 hours; for MIC: Bacillus subtilis, ATCC6633, 20 h, read-out: Antibiotic Activity minimum inhibitory concentration
Method: as §1

[9] = tested on: Enterobacter aerogenes E19; assay: MIC, agar dilution assay; format: cell-based; settings: 35°C for 20 hours; for MIC: Klebsiella aerogenes, E19, 20 h, read-out: Antibiotic Activity minimum inhibitory concentration
Method: as §1

Alcaligenes faecalis A 1 = assay: MIC, agar dilution assay; format: cell-based; settings: 35°C for 20 hours; for MIC: Alcaligenes faecalis, A1, 20 h, read-out: Antibiotic Activity minimum inhibitory concentration
Method: as §1

Escherichia coli K-12 = assay: MIC, agar dilution assay; format: cell-based; settings: 35°C for 20 hours; for MIC: Escherichia coli, K12, 20 h, read-out: Antibiotic Activity minimum inhibitory concentration
Method: as §1

[10] = tested on: Staphylococcus aureus Russell; assay: MIC, agar dilution assay; format: cell-based; settings: 35°C for 20 hours; for MIC: Staphylococcus aureus, 20 h, read-out: Antibiotic Activity minimum inhibitory concentration
Method: as §1

[11] = Reaction with hydroxylamine, loss of UV absorbance; format: physicochemical; settings: about 20 µg/ml, hydroxylamine 10 mM, pH 7.5, 22°C for 30 minutes
Method: An aqueous solution of hydroxylamine having a pH of 7.5 is added to a solution of the above substance in deionized water so that the concentration of the antibiotic PS-3 to about 20 µg/ml and the concentration of hydroxylamine to 10 mM. When the mixed solution is allowed to stand at 22°C for 30 minutes, about 93% of its absorbance at 300.0 nm disappears.

[12] = Solubility (physical and chemical properties); format: physicochemical
Method: The resulting powder was dissolved in 1 ml of a phosphate buffer (M/100, pH 8.4), and charged onto a column (1.1 x 90 cm) of Sephadex G-10 (a product of Pharmacia Fine Chemicals, Co.), and developed with the same buffer. The active fractions were collected by measuring their ultraviolet absorptions (λ300 nm). These fractions were adsorbed to a column (1.1 x 20 cm) of QAE Sephadex A-25 equilibrated with phosphate buffer (M/100, pH 8.4), and the column was eluted with 200 ml of phosphate buffer (M/100, pH 8.4) having a sodium chloride concentration linearly varying from 0 to O.lM by a concentration gradient method. The ultraviolet absorption (X300 nm) of each of the fractions was measured, and the active fractions were collected. Sodium chloride was added to the active fractions so that the concentration of sodium chloride reached 3% (w/v). The mixture was adsorbed to a column (1.1 x 20 cm) of Diaion HP-20AG (200 - 400 mesh), and eluted with water. The eluates were lyophilized to afford 5 mg of the sodium salt of PS-3 as a white dry powder. The physical and chemical properties of the product were as follows: • 1) Color Colorless • 2) Solubility

Proteus mirabilis P6 = assay: MIC, agar dilution assay; format: cell-based; settings: P6, 20 h, 35°C for 20 hours, read-out: Antibiotic Activity minimum inhibitory concentration
Method: as §1

Escherichia coli RGN 823 = assay: MIC, agar dilution assay; format: cell-based; settings: RGN823, 20 h, 35°C for 20 hours, read-out: Antibiotic Activity minimum inhibitory concentration
Method: as §1

Enterobacter cloacae 45 = assay: MIC, agar dilution assay; format: cell-based; settings: Enterobacter cloacae, 45, 20 h, 35°C for 20 hours, read-out: Antibiotic Activity minimum inhibitory concentration
Method: as §1

[13] = tested on: Citrobacter freundii GN 346; assay: MIC, agar dilution assay; format: cell-based; settings: GN346, 20 h, 35°C for 20 hours, read-out: Antibiotic Activity minimum inhibitory concentration
Method: as §1

Row | SMILES | MIC [2] [µg/mL] | MIC (Proteus vulgaris GN76) [µg/mL] | MIC [3] [µg/mL] | MIC (Serratia marcescens S18) [µg/mL] | MIC [4] [µg/mL] | MIC [5] [µg/mL] | MIC [1] [µg/mL] | MIC (Proteus mirabilis P6) [µg/mL] | MIC (Escherichia coli RGN 823) [µg/mL] | MIC (Sarcina lutea) [µg/mL] | MIC [6] [µg/mL] | MIC (Enterobacter cloacae 45) [µg/mL] | MIC (Enterobacter sp. E8) [µg/mL] | MIC [7] [µg/mL] | MIC [8] [µg/mL] | MIC [9] [µg/mL] | MIC (Alcaligenes faecalis A 1) [µg/mL] | MIC (Escherichia coli K-12) [µg/mL] | MIC [13] [µg/mL] | MIC [10] [µg/mL] | also measured
1 | CC(O)[C@H]1C(=O)N2C(C(=O)O)=C(Sc3ccncc3)C[C@H]12 (relative stereo) [Table I-1 R1=-OH*] | 1.56 (≈ 5.09 µM) | 50 (≈ 163 µM) | 0.013 (≈ 0.0424 µM) | 100 (≈ 326 µM) | 25 (≈ 81.6 µM) | 1.56 (≈ 5.09 µM) |  |  |  |  |  |  |  |  |  |  |  |  |  |  | Antibiotic Activity minimum inhibitory concentration [1]: <0.007 µg/mL; Antibiotic Activity minimum inhibitory concentration (Serratia marcescens T55): 25 µg/mL; Antibiotic Activity minimum inhibitory concentration (Providencia sp. P8): 0.20 µg/mL; Antibiotic Activity minimum inhibitory concentration [3]: <0.007 µg/mL; Antibiotic Activity minimum inhibitory concentration (Serratia marcescens S18): 50 µg/mL; Antibiotic Activity minimum inhibitory concentration (Sarcina lutea): <0.007 µg/mL; Antibiotic Activity minimum inhibitory concentration [6]: <0.007 µg/mL; MIC (Proteus sp. P22): 50 µg/mL (≈ 163 µM); Antibiotic Activity minimum inhibitory concentration (Proteus rettgeri P7): 0.78 µg/mL; Antibiotic Activity minimum inhibitory concentration (Enterobacter sp. E8): 0.025 µg/mL; Antibiotic Activity minimum inhibitory concentration [7]: <0.007 µg/mL; Antibiotic Activity minimum inhibitory concentration [8]: <0.007 µg/mL; Antibiotic Activity minimum inhibitory concentration [9]: 1.56 µg/mL; Antibiotic Activity minimum inhibitory concentration (Alcaligenes faecalis A 1): <0.007 µg/mL; Antibiotic Activity minimum inhibitory concentration (Escherichia coli K-12): 0.05 µg/mL; Antibiotic Activity minimum inhibitory concentration [10]: <0.007 µg/mL
2 | CC(=O)NCCSC1=C(C(=O)O)N2C(=O)C(C(C)O)C2C1 (stereo not drawn) [PS-3 sodium salt, 3-(2-acetamidoethylthio)-6-(1-hydroxyethyl)-7-oxo-1-azabicyclo[3.2.0]hept-2-ene-2-carboxylic acid] |  |  |  |  |  |  |  |  |  |  |  |  |  |  |  |  |  |  |  |  | absorbance at 300.0 nm that disappears [11]: about 93%; Solubility ([12]; in acetone): substantially insoluble; Solubility ([12]; in water): Readily soluble
3 | CC(C)C1C(=O)N2C(C(=O)O)=C(Sc3ccncc3)CC12 (stereo not drawn) [Table I-1 R1=-CH3] | 1.56 (≈ 5.13 µM) | 50 (≈ 164 µM) | 0.007 (≈ 0.023 µM) | 50 (≈ 164 µM) | 25 (≈ 82.1 µM) | 1.56 (≈ 5.13 µM) | 0.013 (≈ 0.0427 µM) | 3.13 (≈ 10.3 µM) | 12.5 (≈ 41.1 µM) | 0.013 (≈ 0.0427 µM) | 0.007 (≈ 0.023 µM) | 50 (≈ 164 µM) | 1.56 (≈ 5.13 µM) | 0.013 (≈ 0.0427 µM) | 0.013 (≈ 0.0427 µM) | 12.5 (≈ 41.1 µM) | 0.013 (≈ 0.0427 µM) | 3.13 (≈ 10.3 µM) | 50 (≈ 164 µM) | 0.013 (≈ 0.0427 µM) | MIC (Serratia marcescens T55): 100 µg/mL (≈ 329 µM); MIC (Providencia sp. P8): 3.13 µg/mL (≈ 10.3 µM); MIC (Proteus sp. P22): 50 µg/mL (≈ 164 µM); MIC (Proteus rettgeri P7): 1.56 µg/mL (≈ 5.13 µM)
4 | CCC1C(=O)N2C(C(=O)O)=C(Sc3ccncc3)CC12 (stereo not drawn) [Table I-1 R1=H] | 0.92 (≈ 3.17 µM) | 29.5 (≈ 102 µM) | < 0.007 | 29.5 (≈ 102 µM) | 14.8 (≈ 51 µM) | 0.92 (≈ 3.17 µM) | < 0.007 | 1.8 (≈ 6.2 µM) | 14.8 (≈ 51 µM) | < 0.007 | < 0.007 | 29.5 (≈ 102 µM) | 0.46 (≈ 1.58 µM) | < 0.007 | < 0.007 | 7.4 (≈ 25.5 µM) | < 0.007 | 0.92 (≈ 3.17 µM) | 29.5 (≈ 102 µM) | < 0.007 | MIC (Serratia marcescens T55): 29.5 µg/mL (≈ 102 µM); MIC (Providencia sp. P8): 0.92 µg/mL (≈ 3.17 µM); MIC (Proteus sp. P22): 29.5 µg/mL (≈ 102 µM); MIC (Proteus rettgeri P7): 1.8 µg/mL (≈ 6.2 µM)
5 | CC(C)C1C(=O)N2C(C(=O)O)=C(Sc3ccccn3)CC12 (stereo not drawn) [Table I-2 R1=-CH3] |  |  | 0.007 (≈ 0.023 µM) |  | 50 (≈ 164 µM) |  | 0.05 (≈ 0.164 µM) | 6.25 (≈ 20.5 µM) | 12.5 (≈ 41.1 µM) | 0.004 (≈ 0.0131 µM) | 0.007 (≈ 0.023 µM) | > 100 | 25 (≈ 82.1 µM) | 0.013 (≈ 0.0427 µM) | 0.05 (≈ 0.164 µM) | 50 (≈ 164 µM) | 0.2 (≈ 0.657 µM) | 12.5 (≈ 41.1 µM) | 50 (≈ 164 µM) | 0.013 (≈ 0.0427 µM) | 
6 | CCC1C(=O)N2C(C(=O)O)=C(Sc3ccccn3)CC12 (stereo not drawn) [Table I-2 R1=H] |  |  | 0.003 (≈ 0.0103 µM) |  | 25 (≈ 86.1 µM) |  | 0.012 (≈ 0.0413 µM) | 3.13 (≈ 10.8 µM) | 6.25 (≈ 21.5 µM) | 0.0008 (≈ 0.00276 µM) | 0.006 (≈ 0.0207 µM) | 50 (≈ 172 µM) | 12.5 (≈ 43.1 µM) | 0.012 (≈ 0.0413 µM) | 0.012 (≈ 0.0413 µM) | 25 (≈ 86.1 µM) | 0.1 (≈ 0.344 µM) | 6.25 (≈ 21.5 µM) | 25 (≈ 86.1 µM) | 0.012 (≈ 0.0413 µM) | 
